Values quoted from earlier work in patent publication US20230067402A1, “IS[…] T[…] ANALOGS THEREOF” (Biomind Labs Inc, priority 2021, published 2023).

Conditions: intramuscular administration

CN(C)CCc1c[nH]c2ccccc12 [DMT, N,N-dimethyltryptamine]
time to peak concentration in the blood: 10 to 15 min | blood level after one hour (after one hour): undetectable levels
